The text below walks through data of publication PMC10692473 (Acta Pharmaceutica Sinica. B, 2023).

One data set deals with S. aureus GyrB24 (Staphylococcus aureus, UniProt P0A0K8). The data set can be described thus: Surface plasmon resonance. In kind it is binding. A general note: In SPR one partner is held on a chip, and binding of the other changes the refractive index at the surface.
In a further data set the test system is S. epidermidis MSSE15-3. As to the kind of experiment: Antibacterial spectrum. The following applies: Staphylococcus epidermidis, MSSE153.
Another data set has as its system S. aureus VISA5827. As to the kind of experiment: Antibacterial spectrum. The following applies: Staphylococcus aureus.
A further data set deals with E. coli gyrase (Escherichia coli, UniProt P0AES6). The data set can be described thus: Gyrase inhibitory assay. In kind it is biochemical.
Another data set relates to S. epidermidis MRSE15-1. The data set can be described thus: Antibacterial spectrum. The following applies: Staphylococcus epidermidis, MRSE151.
The target of the next data set is S. aureus gyrase (Staphylococcus aureus, UniProt P0A0K8). The data set can be described thus: Gyrase inhibitory assay. In kind it is biochemical.
S. aureus gyrase, sequence (P0A0K8 whole entry): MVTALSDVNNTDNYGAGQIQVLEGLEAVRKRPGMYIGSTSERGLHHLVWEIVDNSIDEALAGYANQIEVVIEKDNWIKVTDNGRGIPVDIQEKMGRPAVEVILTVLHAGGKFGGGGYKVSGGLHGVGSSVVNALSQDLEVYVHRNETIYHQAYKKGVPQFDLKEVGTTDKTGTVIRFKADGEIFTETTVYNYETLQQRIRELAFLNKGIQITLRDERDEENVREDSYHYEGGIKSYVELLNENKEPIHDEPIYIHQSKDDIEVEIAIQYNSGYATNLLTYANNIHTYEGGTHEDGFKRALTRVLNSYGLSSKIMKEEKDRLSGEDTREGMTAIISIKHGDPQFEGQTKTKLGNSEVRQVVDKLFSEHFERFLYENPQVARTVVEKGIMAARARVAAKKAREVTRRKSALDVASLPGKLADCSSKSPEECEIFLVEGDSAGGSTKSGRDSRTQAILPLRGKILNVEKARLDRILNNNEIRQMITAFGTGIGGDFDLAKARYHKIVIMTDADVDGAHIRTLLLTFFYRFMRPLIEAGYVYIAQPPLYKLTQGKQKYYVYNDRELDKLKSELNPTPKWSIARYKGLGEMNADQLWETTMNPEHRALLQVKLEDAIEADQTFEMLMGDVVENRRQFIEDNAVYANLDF
S. aureus gyrase, sequence (P20831 whole entry partner): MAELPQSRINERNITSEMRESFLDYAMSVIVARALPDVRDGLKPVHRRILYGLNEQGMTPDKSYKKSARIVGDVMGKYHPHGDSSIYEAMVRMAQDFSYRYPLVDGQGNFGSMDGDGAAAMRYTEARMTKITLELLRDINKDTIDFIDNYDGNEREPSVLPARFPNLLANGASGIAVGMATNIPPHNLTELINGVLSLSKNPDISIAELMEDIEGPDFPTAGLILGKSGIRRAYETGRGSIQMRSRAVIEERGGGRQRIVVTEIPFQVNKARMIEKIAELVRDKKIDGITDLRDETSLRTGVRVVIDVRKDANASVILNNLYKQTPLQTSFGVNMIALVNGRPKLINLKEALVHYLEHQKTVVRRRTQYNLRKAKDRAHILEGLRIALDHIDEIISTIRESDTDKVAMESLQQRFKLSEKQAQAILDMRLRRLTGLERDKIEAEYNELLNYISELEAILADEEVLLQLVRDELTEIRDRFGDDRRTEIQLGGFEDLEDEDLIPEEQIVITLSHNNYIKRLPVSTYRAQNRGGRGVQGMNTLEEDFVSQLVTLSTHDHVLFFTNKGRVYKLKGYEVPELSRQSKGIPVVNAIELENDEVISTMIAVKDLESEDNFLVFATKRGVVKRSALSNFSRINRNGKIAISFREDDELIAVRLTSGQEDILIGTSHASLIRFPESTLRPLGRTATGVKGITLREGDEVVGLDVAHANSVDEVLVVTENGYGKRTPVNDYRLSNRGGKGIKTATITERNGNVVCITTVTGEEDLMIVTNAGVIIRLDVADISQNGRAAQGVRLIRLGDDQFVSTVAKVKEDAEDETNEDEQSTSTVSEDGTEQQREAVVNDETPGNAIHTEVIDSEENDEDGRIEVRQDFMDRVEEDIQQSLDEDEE
The next data set concerns S. epidermidis MRSE15-2. As to the kind of experiment: Antibacterial spectrum. To be noted: Staphylococcus epidermidis, MRSE152.
The next data set has as its system E. coli (ATCC25922). The data set can be described thus: Antibacterial assay. To be noted: for MIC: Escherichia coli, ATCC25922, read-out: MIC E. coli (ATCC25922).
The test system of a further data set is E. faecalis ATCC51299. As to the kind of experiment: Antibacterial spectrum. The following applies: Enterococcus faecalis.
In a further data set the test system is S. aureus MRSA15-2. The data set can be described thus: Antibacterial spectrum. The following applies: Staphylococcus aureus, MRSA152.
In data set [1] the test system is S. aureus (ATCC29213). As to the kind of experiment: Antibacterial assay. The following applies: Staphylococcus aureus, ATCC29213, read-out: MIC S. aureus (ATCC29213).
For a further data set, the system named is S. aureus VISA5836. As to the kind of experiment: Antibacterial spectrum. The following applies: Staphylococcus aureus.
Another data set relates to E. faecalis ATCC51575. The data set can be described thus: Antibacterial spectrum. The following applies: Enterococcus faecalis.
For the next data set, the system named is S. aureus MRSA15-1. As to the kind of experiment: Antibacterial spectrum. To be noted: Staphylococcus aureus, MRSA151.
The test system of another data set is S. aureus ATCC43300. As to the kind of experiment: Antibacterial spectrum. To be noted: Staphylococcus aureus.
Data set [2] concerns S. aureus (ATCC29213). As to the kind of experiment: Time-killing curves / killing kinetic studies. In kind it is cell-based. The following applies: 4, 8, and 16 × MIC.
The test system of a further data set is S. aureus MSSA15-2. The data set can be described thus: Antibacterial spectrum. The following applies: Staphylococcus aureus, MSSA152.
For the next data set, the system named is HepG2 cells. The data set can be described thus: Mitochondrial toxicity.
The test system of a further data set is S. aureus MSSA15-1. The data set can be described thus: Antibacterial spectrum. To be noted: Staphylococcus aureus, MSSA151.
For a further data set, the system named is E. faecium EFM19-1. The data set can be described thus: Antibacterial spectrum. The following applies: Enterococcus faecium, EFM191.
The subject of data set [3] is methicillin-resistant S. aureus (ATCC43300). The data set can be described thus: Mouse model of sepsis induced by MRSA. In kind it is in vivo, ICR mice. The following applies: 10 mg/kg ig, MRSA ATCC43300, observed 7 days.
The target of a further data set is E. coli Topo IV (Escherichia coli, UniProt P20083). The data set can be described thus: Topo IV inhibitory assay. In kind it is biochemical.
E. coli Topo IV, sequence (P20083 whole entry): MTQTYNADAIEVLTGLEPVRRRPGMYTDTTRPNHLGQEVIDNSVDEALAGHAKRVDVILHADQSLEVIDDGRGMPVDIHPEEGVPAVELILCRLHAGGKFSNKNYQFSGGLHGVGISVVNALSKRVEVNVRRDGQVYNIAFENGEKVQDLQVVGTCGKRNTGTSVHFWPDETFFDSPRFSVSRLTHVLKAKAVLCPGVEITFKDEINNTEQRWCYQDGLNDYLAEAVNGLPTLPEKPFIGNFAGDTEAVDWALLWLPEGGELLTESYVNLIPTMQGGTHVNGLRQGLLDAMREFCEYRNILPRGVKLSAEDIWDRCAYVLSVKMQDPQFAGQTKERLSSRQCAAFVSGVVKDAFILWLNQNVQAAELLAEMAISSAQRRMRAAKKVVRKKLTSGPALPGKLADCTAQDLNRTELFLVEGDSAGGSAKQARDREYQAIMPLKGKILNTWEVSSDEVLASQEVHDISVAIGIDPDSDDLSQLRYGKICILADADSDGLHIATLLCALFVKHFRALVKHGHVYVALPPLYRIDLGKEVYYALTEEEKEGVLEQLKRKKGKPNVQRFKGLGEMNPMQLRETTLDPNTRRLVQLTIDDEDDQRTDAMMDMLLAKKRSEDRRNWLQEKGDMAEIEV
E. coli Topo IV, sequence (P0AFI2 whole entry partner): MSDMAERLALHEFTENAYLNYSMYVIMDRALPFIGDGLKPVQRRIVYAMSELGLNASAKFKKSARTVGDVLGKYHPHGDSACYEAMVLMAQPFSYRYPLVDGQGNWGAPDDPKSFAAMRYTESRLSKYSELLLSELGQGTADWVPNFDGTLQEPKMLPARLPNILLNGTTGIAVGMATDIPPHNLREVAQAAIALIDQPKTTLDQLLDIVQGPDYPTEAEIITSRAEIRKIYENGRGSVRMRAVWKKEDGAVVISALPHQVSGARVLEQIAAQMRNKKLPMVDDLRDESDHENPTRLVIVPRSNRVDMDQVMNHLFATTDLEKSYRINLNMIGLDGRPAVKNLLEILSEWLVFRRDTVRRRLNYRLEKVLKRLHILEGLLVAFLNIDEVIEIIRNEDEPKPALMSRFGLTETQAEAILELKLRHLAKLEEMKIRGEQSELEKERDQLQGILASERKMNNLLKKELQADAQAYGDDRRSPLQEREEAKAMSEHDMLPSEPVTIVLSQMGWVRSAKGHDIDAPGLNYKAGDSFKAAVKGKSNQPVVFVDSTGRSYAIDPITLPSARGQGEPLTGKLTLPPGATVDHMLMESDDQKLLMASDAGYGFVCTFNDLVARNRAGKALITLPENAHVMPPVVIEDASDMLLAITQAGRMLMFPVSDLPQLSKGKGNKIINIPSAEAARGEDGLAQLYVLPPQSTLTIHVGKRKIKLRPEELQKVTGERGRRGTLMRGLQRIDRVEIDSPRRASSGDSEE
In a further data set the target is S. aureus Topo IV (Staphylococcus aureus, UniProt P0C1S7). The data set can be described thus: Topo IV inhibitory assay. In kind it is biochemical.
S. aureus Topo IV, sequence (P0C1S7 whole entry): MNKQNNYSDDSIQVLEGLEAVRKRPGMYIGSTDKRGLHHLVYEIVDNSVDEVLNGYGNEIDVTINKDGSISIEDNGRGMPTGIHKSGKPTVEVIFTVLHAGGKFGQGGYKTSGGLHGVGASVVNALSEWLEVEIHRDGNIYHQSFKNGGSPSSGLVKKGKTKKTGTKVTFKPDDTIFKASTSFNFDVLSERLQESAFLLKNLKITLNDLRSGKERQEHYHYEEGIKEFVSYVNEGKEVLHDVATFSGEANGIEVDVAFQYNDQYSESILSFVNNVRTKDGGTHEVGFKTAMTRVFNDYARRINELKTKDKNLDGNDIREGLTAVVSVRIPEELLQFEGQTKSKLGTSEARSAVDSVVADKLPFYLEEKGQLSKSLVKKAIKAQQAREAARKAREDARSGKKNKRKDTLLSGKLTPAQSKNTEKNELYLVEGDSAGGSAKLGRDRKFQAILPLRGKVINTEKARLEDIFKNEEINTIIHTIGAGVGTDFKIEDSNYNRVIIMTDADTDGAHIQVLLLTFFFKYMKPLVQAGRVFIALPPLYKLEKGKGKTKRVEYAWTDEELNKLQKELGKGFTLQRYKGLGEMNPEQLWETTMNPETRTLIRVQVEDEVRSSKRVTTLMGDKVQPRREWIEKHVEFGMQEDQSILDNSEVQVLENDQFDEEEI
S. aureus Topo IV, sequence (P0C1U9 whole entry partner): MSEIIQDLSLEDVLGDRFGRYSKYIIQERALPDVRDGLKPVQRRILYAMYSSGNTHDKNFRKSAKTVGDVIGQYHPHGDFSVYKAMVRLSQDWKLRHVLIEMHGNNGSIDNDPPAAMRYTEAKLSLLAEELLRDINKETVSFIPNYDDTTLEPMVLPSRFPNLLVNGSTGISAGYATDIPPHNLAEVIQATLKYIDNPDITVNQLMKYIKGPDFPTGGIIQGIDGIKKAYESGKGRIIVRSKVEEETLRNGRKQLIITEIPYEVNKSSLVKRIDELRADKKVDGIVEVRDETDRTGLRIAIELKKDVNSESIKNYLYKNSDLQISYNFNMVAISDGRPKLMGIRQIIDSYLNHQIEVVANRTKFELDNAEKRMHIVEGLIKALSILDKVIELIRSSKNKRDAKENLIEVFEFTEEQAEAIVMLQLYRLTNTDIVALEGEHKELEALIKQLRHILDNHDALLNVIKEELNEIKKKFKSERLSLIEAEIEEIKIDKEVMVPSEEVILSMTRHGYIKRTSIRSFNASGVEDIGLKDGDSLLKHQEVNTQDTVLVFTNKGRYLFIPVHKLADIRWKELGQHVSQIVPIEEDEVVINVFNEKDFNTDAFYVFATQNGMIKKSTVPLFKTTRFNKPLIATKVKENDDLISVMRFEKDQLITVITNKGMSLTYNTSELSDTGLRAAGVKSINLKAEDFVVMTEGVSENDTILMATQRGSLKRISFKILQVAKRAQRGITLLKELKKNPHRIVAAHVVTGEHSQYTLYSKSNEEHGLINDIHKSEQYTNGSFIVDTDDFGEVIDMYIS
The test system of the next data set is MRSA (ATCC43300). As to the kind of experiment: Neutropenic murine thigh MRSA infection model. The following applies: neutropenic mouse thigh MRSA infection, iv. In kind it is in vivo, ICR mice.

Values after ≈ are worked out from the molar mass of the structure shown. Some results are limits rather than exact numbers.

S. aureus GyrB24, sequence (P0A0K8 2-220): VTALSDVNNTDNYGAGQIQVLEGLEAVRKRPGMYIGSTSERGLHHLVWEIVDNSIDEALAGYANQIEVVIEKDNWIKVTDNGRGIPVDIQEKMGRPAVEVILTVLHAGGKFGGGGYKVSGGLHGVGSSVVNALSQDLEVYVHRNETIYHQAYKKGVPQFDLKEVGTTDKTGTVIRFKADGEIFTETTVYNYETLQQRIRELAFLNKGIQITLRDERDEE

The Kd is the free concentration of one partner at which half of the binding sites on the other are occupied at equilibrium, for simple one-to-one binding. A low value points to higher affinity. By MIC is commonly meant the lowest concentration found to suppress growth. What is called IC50 is the point on the concentration scale where inhibition reaches its midpoint. In turn, `COC[C@H](C)NC(=O)c1nc(N2CC[C@@H](NC(=O)c3[nH]c(C)c(Cl)c3Cl)[C@@H](OC)C2)sc1C(=O)O` [AZD5099 (6), reference compound] gave a Kd on S. aureus GyrB24 of 83.8 nM. Further, the MIC with S. epidermidis MSSE15-3 amounted to 0.03 µg/mL (≈ 0.0547 µM); against S. aureus VISA5827 it was 0.015 µg/mL (≈ 0.0273 µM); in the data set with S. epidermidis MRSE15-1, 0.03 µg/mL (≈ 0.0547 µM); against S. epidermidis MRSE15-2, 0.03 µg/mL (≈ 0.0547 µM); with E. coli (ATCC25922), 32 µg/mL (≈ 58.3 µM); against E. faecalis ATCC51299, 0.03 µg/mL (≈ 0.0547 µM). In addition, the MIC with S. aureus MRSA15-2 amounted to 0.03 µg/mL (≈ 0.0547 µM); in the data set on S. aureus (ATCC29213) [1], 0.015 µg/mL (≈ 0.0273 µM); with S. aureus VISA5836, 0.015 µg/mL (≈ 0.0273 µM); in the data set on E. faecalis ATCC51575, 0.03 µg/mL (≈ 0.0547 µM); against S. aureus MRSA15-1, 0.03 µg/mL (≈ 0.0547 µM); in the data set with S. aureus ATCC43300, 0.03 µg/mL (≈ 0.0547 µM). The minimum inhibitory concentration (MIC) against S. aureus MSSA15-2, in the data set on S. aureus MSSA15-1 and against E. faecium EFM19-1 was 0.03 µg/mL (≈ 0.0547 µM) each time. The IC50 at E. coli gyrase is 760 nM; against S. aureus gyrase, 32 ± 14 nM; in the data set on HepG2 cells (Homo sapiens, HepG2, read-out: mitochondrial toxicity IC50), under 200 µM. For the same compound, the “time-kill curve” value in the data set with S. aureus (ATCC29213) [2] was “time-dependent bactericidal effect”. Moreover, the “mitochondrial toxicity” value with HepG2 cells (HepG2 cells, 400 μmol/L) was “complete damage”. Moreover, the “protective effect / survival in mouse model of sepsis” value (“protective effect / survival” below) in data set [3] was “survived”.

Regarding `COC(=O)c1ccc(N2CC[C@@H](NC(=O)c3[nH]c(C)c(Cl)c3Cl)[C@@H](OC)C2)nn1` [Compound 14, Methyl-6-((3S,4R)-4-(3,4-dichloro-5-methyl-1H-pyrrole-2-carboxamido)-3-methoxypiperidin-1-yl)pyridazine-3-carboxylate], the IC50 against E. coli Topo IV is over 10 µM; on E. coli gyrase, 3120 ± 923 nM; on S. aureus gyrase, 136 ± 20 nM; at S. aureus Topo IV it was 7.18 ± 2.81 µM. Moreover, the minimal inhibitory concentration (MIC) in the data set on E. coli (ATCC25922) worked out at 1 µg/mL (≈ 2.26 µM); in the data set on S. aureus (ATCC29213) [1], 0.015 µg/mL (≈ 0.0339 µM). Also, in data set [3], the “protective effect / survival” value is reported as “weak protective effects”.

With `CO[C@H]1CN(c2ccc(C(=O)C(F)(F)F)nn2)CC[C@H]1NC(=O)c1[nH]c(C)c(Cl)c1Cl` [Compound 22, 3,4-Dichloro-N-((3S,4R)-3-methoxy-1-(6-(2,2,2-trifluoroacetyl)pyridazin-3-yl)piperidin-4-yl)-5-methyl-1H-pyrrole-2-carboxamide], the IC50 is over 10 µM at E. coli Topo IV, 788 ± 289 nM against E. coli gyrase, 45 ± 9 nM on S. aureus gyrase and 2.13 ± 0.753 µM against S. aureus Topo IV. For the same compound, the MIC in the data set with E. coli (ATCC25922) was 1 µg/mL (≈ 2.08 µM); in the data set on S. aureus (ATCC29213) [1], at most 0.015 µg/mL. Further, in data set [3], the “protective effect / survival” value is given as “weak protective effects”.

As for `CO[C@H]1CN(c2ccc(/C(C)=N/O)nn2)CC[C@H]1NC(=O)c1[nH]c(C)c(Cl)c1Cl` [Compound 23, 3,4-Dichloro-N-((3S,4R)-1-(6-((E)-1-(hydroxyimino)ethyl)pyridazin-3-yl)-3-methoxypiperidin-4-yl)-5-methyl-1H-pyrrole-2-carboxamide], the figures for the half-maximal inhibitory concentration (IC50) at E. coli gyrase and against S. aureus gyrase were 2560 nM and 1490 ± 234 nM, respectively. The MIC is 1 µg/mL (≈ 2.27 µM) in the data set with E. coli (ATCC25922) and at most 0.015 µg/mL in the data set on S. aureus (ATCC29213) [1]. In addition, the “protective effect / survival” value in data set [3] is on record as “weak protective effects”.

Take `CO[C@H]1CN(c2ccc(/C(C)=N/OC(C)(C)C(=O)O)nn2)CC[C@H]1NC(=O)c1[nH]c(C)c(Cl)c1Cl` [Compound 26, 2-((((E)-1-(6-((3S,4R)-4-(3,4-Dichloro-5-methyl-1H-pyrrole-2-carboxamido)-3-methoxypiperidin-1-yl)pyridazin-3-yl)ethylidene)amino)oxy)-2-methylpropanoic acid]: the IC50 against E. coli Topo IV is over 10 µM; against E. coli gyrase, 869 ± 313 nM; against S. aureus gyrase, 52 ± 13 nM; against S. aureus Topo IV it was 5.71 ± 2.14 µM. Moreover, the “MIC E. coli (ATCC25922)” value with E. coli (ATCC25922) was “inactive”. Besides, the MIC was over 128 µg/mL in the data set on E. coli (ATCC25922) and 0.125 µg/mL (≈ 0.237 µM) in the data set on S. aureus (ATCC29213) [1].

As for `CO[C@H]1CN(c2ccc(C(=O)NCCN)nn2)CC[C@H]1NC(=O)c1[nH]c(C)c(Cl)c1Cl` [Compound 32, N-(2-Aminoethyl)-6-((3S,4R)-4-(3,4-dichloro-5-methyl-1H-pyrrole-2-carboxamido)-3-methoxypiperidin-1-yl)pyridazine-3-carboxamide], the IC50 against E. coli gyrase and against S. aureus gyrase was over 10000 nM each time. Further, the MIC was 64 µg/mL (≈ 136 µM) in the data set on E. coli (ATCC25922) and 32 µg/mL (≈ 68 µM) in the data set with S. aureus (ATCC29213) [1].

For the compound `CO[C@H]1CN(c2ccc(C(=O)N3CCNCC3)nn2)CC[C@H]1NC(=O)c1[nH]c(C)c(Cl)c1Cl` [Compound 33, 3,4-Dichloro-N-((3S,4R)-3-methoxy-1-(6-(piperazine-1-carbonyl)pyridazin-3-yl)piperidin-4-yl)-5-methyl-1H-pyrrole-2-carboxamide], the IC50 is over 10000 nM at E. coli gyrase and 1090 ± 146 nM at S. aureus gyrase. Further, the MIC in the data set on E. coli (ATCC25922) was 32 µg/mL (≈ 64.5 µM); with S. aureus (ATCC29213) [1] it was 0.25 µg/mL (≈ 0.504 µM).

In the case of `CO[C@H]1CN(c2ccc(CN)nn2)CC[C@H]1NC(=O)c1[nH]c(C)c(Cl)c1Cl` [Compound 34, N-((3S,4R)-1-(6-(Aminomethyl)pyridazin-3-yl)-3-methoxypiperidin-4-yl)-3,4-dichloro-5-methyl-1H-pyrrole-2-carboxamide], the half-inhibitory concentration (IC50) against E. coli gyrase and at S. aureus gyrase was over 10000 nM each time. Also, the minimal inhibitory concentration (MIC) in the data set on E. coli (ATCC25922) was over 128 µg/mL; in the data set with S. aureus (ATCC29213) [1], 32 µg/mL (≈ 77.4 µM).

Turning to `CO[C@H]1CN(c2ccc(C(=N)N)nn2)CC[C@H]1NC(=O)c1[nH]c(C)c(Cl)c1Cl` [Compound 35, N-((3S,4R)-1-(6-Carbamimidoylpyridazin-3-yl)-3-methoxypiperidin-4-yl)-3,4-dichloro-5-methyl-1H-pyrrole-2-carboxamide], the IC50 against E. coli gyrase and at S. aureus gyrase was over 10000 nM in each case. The figures for the MIC in the data set with E. coli (ATCC25922) and in the data set on S. aureus (ATCC29213) [1] were over 128 µg/mL and 32 µg/mL (≈ 75.1 µM), respectively.

`CO[C@H]1CN(c2ccc(-c3nn[nH]n3)nn2)CC[C@H]1NC(=O)c1[nH]c(C)c(Cl)c1Cl` [Compound 36, N-((3S,4R)-1-(6-(2H-Tetrazol-5-yl)pyridazin-3-yl)-3-methoxypiperidin-4-yl)-3,4-dichloro-5-methyl-1H-pyrrole-2-carboxamide]: the IC50 on E. coli gyrase and against S. aureus gyrase was over 10000 nM throughout. The MIC with E. coli (ATCC25922) amounted to 16 µg/mL (≈ 35.4 µM); in the data set with S. aureus (ATCC29213) [1] it was 0.5 µg/mL (≈ 1.11 µM).

As to `CO[C@@H]1[C@@H](OC(N)=O)[C@@H](O)[C@H](Oc2ccc3c(O)c(NC(=O)c4ccc(O)c(CC=C(C)C)c4)c(=O)oc3c2C)OC1(C)C` [novobiocin (1), novobiocin, reference compound], the figures for the MIC with E. coli (ATCC25922) and in the data set with S. aureus (ATCC29213) [1] were 128 µg/mL (≈ 209 µM) and 0.5 µg/mL (≈ 0.816 µM), respectively. Moreover, on S. aureus Topo IV, 0.383 ± 0.12 µM corresponded to half-maximal inhibition (IC50).

In the data set on MRSA (ATCC43300), `CN[C@H](CC(C)C)C(=O)N[C@H]1C(=O)N[C@@H](CC(N)=O)C(=O)N[C@H]2C(=O)N[C@H]3C(=O)N[C@H](C(=O)N[C@H](C(=O)O)c4cc(O)cc(O)c4-c4cc3ccc4O)[C@H](O)c3ccc(c(Cl)c3)Oc3cc2cc(c3O[C@@H]2O[C@H](CO)[C@@H](O)[C@H](O)[C@H]2O[C@H]2C[C@](C)(N)[C@H](O)[C@H](C)O2)Oc2ccc(cc2Cl)[C@H]1O` [vancomycin, reference compound] registered an effective dose of 110 mg/kg.
